Where a name gives a salt, the structure may show the parent alone.
These molecules were tested against Proton Pump (H^+/K^+-ATPase) (Sus scrofa, UniProt P19156) (assay: Inhibitory effects on proton pump (H^+/K^+-ATPase) activity). Conditions: hog gastric vesicles; K^+ stimulated H^+/K^+-ATPase activity; 30 minutes at 37° C.
Assay type: biochemical

Sequence of Proton Pump (H^+/K^+-ATPase) (P19156 2-1034 limits assumed): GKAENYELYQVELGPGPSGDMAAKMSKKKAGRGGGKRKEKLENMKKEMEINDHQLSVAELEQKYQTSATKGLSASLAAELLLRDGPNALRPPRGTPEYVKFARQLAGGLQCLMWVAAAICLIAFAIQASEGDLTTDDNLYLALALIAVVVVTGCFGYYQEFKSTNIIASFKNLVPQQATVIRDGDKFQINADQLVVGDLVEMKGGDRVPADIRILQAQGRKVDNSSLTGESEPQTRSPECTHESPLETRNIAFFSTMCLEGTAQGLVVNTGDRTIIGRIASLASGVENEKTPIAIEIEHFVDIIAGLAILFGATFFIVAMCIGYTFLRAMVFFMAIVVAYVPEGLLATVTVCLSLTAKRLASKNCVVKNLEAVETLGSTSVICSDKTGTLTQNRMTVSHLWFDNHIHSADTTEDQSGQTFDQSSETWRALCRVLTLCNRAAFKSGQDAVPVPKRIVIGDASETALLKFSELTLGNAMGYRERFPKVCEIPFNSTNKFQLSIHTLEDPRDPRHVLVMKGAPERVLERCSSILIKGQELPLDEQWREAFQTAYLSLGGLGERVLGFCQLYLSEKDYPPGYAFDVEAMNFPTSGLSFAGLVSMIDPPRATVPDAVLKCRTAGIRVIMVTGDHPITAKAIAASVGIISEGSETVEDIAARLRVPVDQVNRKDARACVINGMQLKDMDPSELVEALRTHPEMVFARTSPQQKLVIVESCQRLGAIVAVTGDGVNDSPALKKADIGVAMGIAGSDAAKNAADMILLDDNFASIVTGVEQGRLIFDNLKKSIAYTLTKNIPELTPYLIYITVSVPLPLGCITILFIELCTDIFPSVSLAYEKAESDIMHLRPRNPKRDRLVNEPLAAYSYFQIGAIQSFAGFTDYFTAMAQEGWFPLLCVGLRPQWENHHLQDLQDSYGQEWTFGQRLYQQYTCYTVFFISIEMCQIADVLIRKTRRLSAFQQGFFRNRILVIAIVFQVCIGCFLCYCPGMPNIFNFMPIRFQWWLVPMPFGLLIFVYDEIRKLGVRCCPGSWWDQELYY
Sequence of Proton Pump (H^+/K^+-ATPase) (P18434 whole entry partner): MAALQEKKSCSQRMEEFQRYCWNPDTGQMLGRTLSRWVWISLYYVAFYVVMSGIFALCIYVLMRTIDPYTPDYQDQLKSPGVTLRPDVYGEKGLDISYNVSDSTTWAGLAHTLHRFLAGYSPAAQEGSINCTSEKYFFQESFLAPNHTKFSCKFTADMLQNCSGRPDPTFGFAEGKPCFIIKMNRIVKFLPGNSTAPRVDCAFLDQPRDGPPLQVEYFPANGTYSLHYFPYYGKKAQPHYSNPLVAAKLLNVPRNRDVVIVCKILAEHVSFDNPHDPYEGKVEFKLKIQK

Row | SMILES | IC50
1 | Cc1c(C)n(Cc2cccc(F)c2)c2c(N(C)Cc3ccc(F)cc3)nccc12 [Example 159, 1-(3-fluorobenzyl)-7-[N-(4-fluorobenzyl)-N-methyl]amino-2,3-dimethyl-1H-pyrrolo[2,3-c]pyridine hydrochloride] | 90 nM
2 | Cc1c(C)n(Cc2ccccc2)c2c(NCc3ccc(F)cc3)nc(C(=O)N3CCOCC3)cc12 [Example 909, [1-benzyl-7-(4-fluorobenzylamino)-2,3-dimethyl-1H-pyrrolo[2,3-c]pyridin-5-yl]-(morpholin-4-yl)-methanone hydrochloride] | 90 nM
3 | Cc1ccc(Cn2c(C)c(C)c3ccnc(NCc4ccc(Cl)cc4)c32)cc1 [Example 221, 7-(4-chlorobenzylamino)-2,3-dimethyl-1-(4-methylbenzyl)-1H-pyrrolo[2,3-c]pyridine hydrochloride] | 630 nM
4 | C=CCn1c(C)c(C)c2ccnc(N(C)Cc3ccc(F)cc3)c21 [Example 140, 1-allyl-7-[N-(4-fluorobenzyl)-N-methyl]amino-2,3-dimethyl-1H-pyrrolo[2,3-c]pyridine hydrochloride] | 240 nM
5 | COc1cccc(Cn2c(C)c(C)c3cc(C(=O)N4CCNCC4)nc(N4CCc5ccccc5C4)c32)c1 [Example 822, [7-(3,4-dihydro-1H-isoquinolin-2-yl)-1-(3-methoxybenzyl)-2,3-dimethyl-1H-pyrrolo[2,3-c]pyridin-5-yl]-(piperazin-1-yl)-methanone hydrochloride] | 23 nM
6 | Cc1[nH]c2c(NCc3ccccc3)nccc2c1C [Example 175, 7-benzylamino-2,3-dimethyl-1H-pyrrolo[2,3-c]pyridine hydrochloride] | 80 nM
7 | COCCn1c(C)c(C)c2cc(C(=O)O)nc(N3CCc4ccccc4C3)c21 [Example 734, 7-(3,4-dihydro-1H-isoquinolin-2-yl)-1-(2-methoxyethyl)-2,3-dimethyl-1H-pyrrolo[2,3-c]pyridin-5-carboxylic acid] | 366 nM
8 | Cc1c(C)n(Cc2cccc(F)c2)c2c(N3CCc4ccccc4C3)nc(C=O)cc12 [Example 864, 7-(3,4-dihydro-1H-isoquinolin-2-yl)-1-(3-fluorobenzyl)-2,3-dimethyl-1H-pyrrolo[2,3-c]pyridin-5-carbaldehyde hydrochloride] | 213 nM
9 | Cc1c(C)n(CC2CC2)c2c(N3CCc4ccccc4C3)nc(C(=O)N3CCCCC3)cc12 [Example 793, [1-cyclopropylmethyl-7-(3,4-dihydro-1H-isoquinolin-2-yl)-2,3-dimethyl-1H-pyrrolo[2,3-c]pyridin-5-yl]-(piperidin-1-yl)-methanone hydrochloride] | 117 nM
10 | Cc1c(C)n(Cc2cccc(F)c2)c2c(CNc3ccc(F)cc3)nccc12 [Example 91, N-[1-(3-fluorobenzyl)-2,3-dimethyl-1H-pyrrolo[2,3-c]pyridin-7-ylmethyl]-4-fluorophenylamine hydrochloride] | 209 nM
11 | CSc1ccc(-c2nccc3c(C)c(C)n(Cc4ccc(F)cc4)c23)cc1 [Example 274, 2,3-dimethyl-1-(4-fluorobenzyl)-7-(4-methylsulfanylphenyl)-1H-pyrrolo[2,3-c]pyridine hydrochloride] | 420 nM
12 | CCn1c(C)c(C)c2cc(C(=O)O)nc(N3CCc4ccccc4C3)c21 [Example 738, 7-(3,4-dihydro-1H-isoquinolin-2-yl)-1-ethyl-2,3-dimethyl-1H-pyrrolo[2,3-c]pyridin-5-carboxylic acid] | 331 nM
13 | COCn1c(C)c(C)c2ccnc(N3CCc4ccccc4C3)c21 [Example 496, 1-methoxymethyl-7-(1,2,3,4-tetrahydroisoquinolin-2-yl)-2,3-dimethyl-1H-pyrrolo[2,3-c]pyridine hydrochloride] | 230 nM
14 | Cc1c(C)n(Cc2cccc(F)c2)c2c(N3CCc4ccccc4C3)nc(N)cc12 [Example 847, 7-(3,4-dihydro-1H-isoquinolin-2-yl)-1-(3-fluorobenzyl)-2,3-dimethyl-1H-pyrrolo[2,3-c]pyridin-5-amine hydrochloride] | 62 nM
15 | Cc1c(C)n(Cc2cccc(Cl)c2)c2c(N3CCc4ccccc4C3)nc(N)cc12 [Example 845, 1-(3-chlorobenzyl)-7-(3,4-dihydro-1H-isoquinolin-2-yl)-2,3-dimethyl-1H-pyrrolo[2,3-c]pyridin-5-amine hydrochloride] | 287 nM
16 | COc1cccc(Cn2c(C)c(C)c3cc(CN4CCN(C)CC4)nc(N4CCc5ccccc5C4)c32)c1 [Example 876, 2-[1-(3-methoxybenzyl)-2,3-dimethyl-5-(4-methylpiperazin-1-ylmethyl)-1H-pyrrolo[2,3-c]pyridin-7-yl]-1,2,3,4-tetrahydroisoquinoline hydrochloride] | 99 nM
17 | COc1ccc(Cn2c(C)c(C)c3ccnc(N4CCc5ccccc5C4C)c32)cc1 (centres unmarked) [Example 558, 2-[1-(4-methoxybenzyl)-2,3-dimethyl-1H-pyrrolo[2,3-c]pyridin-7-yl]-1-methyl-1,2,3,4-tetrahydroisoquinoline hydrochloride] | 430 nM
18 | C=CCn1c(C)c(C)c2ccnc(N3CCc4ccccc4C3)c21 [Example 489, 1-allyl-7-(1,2,3,4-tetrahydroisoquinolin-2-yl)-2,3-dimethyl-1H-pyrrolo[2,3-c]pyridine p-toluenesulfonate] | 3 nM

Row | SMILES | IC50
19 | C=CCCn1c(C)c(C)c2ccnc(N(C)Cc3ccc(F)cc3)c21 [Example 157, 1-(but-3-enyl)-7-[N-(4-fluorobenzyl)-N-methyl]amino-2,3-dimethyl-1H-pyrrolo[2,3-c]pyridine hydrochloride] | 380 nM
20 | Cc1c(C)n(Cc2cccc(Cl)c2)c2c(N3CCc4ccccc4C3)nc(-c3nnn[nH]3)cc12 [Example 852, 2-[1-(3-chlorobenzyl)-2,3-dimethyl-5-(1H-tetrazol-5-yl)-1H-pyrrolo[2,3-c]pyridin-7-yl]-1,2,3,4-tetrahydroisoquinoline] | 427 nM
21 | Cc1c(CC#N)c2ccnc(N3CCc4ccccc4C3)c2n1Cc1ccccc1 [Example 624, [1-benzyl-7-(3,4-dihydro-1H-isoquinolin-2-yl)-2-methyl-1H -pyrrolo[2,3-c]pyridin-3-yl]-acetonitrile hydrochloride] | 10 nM
22 | Cc1c(C)n(CC2CC2)c2c(NCc3ccc(Cl)cc3)nccc12 [Example 227, 7-(4-chlorobenzylamino)-1-cyclopropylmethyl-2,3-dimethyl-1H-pyrrolo[2,3-c]pyridine hydrochloride] | 73 nM
23 | Cc1c(C)n(Cc2ccncc2)c2c(N3CCc4ccccc4C3)nccc12 [Example 518, 1-(pyridin-4-ylmethyl)-7-(1,2,3,4-tetrahydroisoquinolin-2-yl)-2,3-dimethyl-1H-pyrrolo[2,3-c]pyridine hydrochloride] | 179 nM
24 | COc1cccc(Cn2c(C)c(C)c3cc(C(=O)N4CCC(C)CC4)nc(N4CCc5ccccc5C4)c32)c1 [Example 823, [7-(3,4-dihydro-1H-isoquinolin-2-yl)-1-(3-methoxybenzyl)-2,3-dimethyl-1H-pyrrolo[2,3-c]pyridin-5-yl]-(4-methylpiperidin-1-yl)-methanone hydrochloride] | 216 nM
25 | COCCn1c(C)c(C)c2ccnc(NCc3ccccc3C)c21 [Example 213, 1-(2-methoxyethyl)-2,3-dimethyl-7-(2-methylbenzylamino)-1H-pyrrolo[2,3-c]pyridine hydrochloride] | 310 nM
26 | Cc1c(C)n(Cc2ccccc2)c2c(N3CCc4ccccc4C3)nc(C(=O)n3ccnc3)cc12 [Example 839, [1-benzyl-7-(3,4-dihydro-1H-isoquinolin-2-yl)-2,3-dimethyl-1H-pyrrolo[2,3-c]pyridin-5-yl]-(imidazol-1-yl)-methanone hydrochloride] | 257 nM
27 | Cc1[nH]c2c(-c3ccc4ccccc4c3)nccc2c1C [Example 410, 2,3-dimethyl-7-(naphthalen-2-yl)-1H-pyrrolo[2,3-c]pyridine sodium] | 99 nM
28 | Cc1c(C)n(Cc2cccc(Cl)c2)c2c(N3CCc4ccccc4C3)nc(C(=O)N3CCSCC3)cc12 [Example 790, [1-(3-chlorobenzyl)-7-(3,4-dihydro-1H-isoquinolin-2-yl)-2,3-dimethyl-1H-pyrrolo[2,3-c]pyridin-5-yl]-(thiomorpholin-1-yl)-methanone hydrochloride] | 128 nM
29 | COc1cccc(Cn2c(C)c(C)c3ccnc(N(C)Cc4ccc(F)cc4)c32)c1 [Example 151, 7-[N-(4-fluorobenzyl)-N-methyl]amino-1-(3-methoxybenzyl)-2,3-dimethyl-1H-pyrrolo[2,3-c]pyridine hydrochloride] | 340 nM
30 | Cc1ccc(Cn2c(C)c(C)c3ccnc(COc4ccc(C)cc4)c32)cc1 [Example 17, 2,3-dimethyl-1-(4-methylbenzyl)-7-(p-tolyloxymethyl)-1H-pyrrolo[2,3-c]pyridine hydrochloride] | 430 nM
31 | Cc1ccc(Cn2c(C)c(C)c3ccnc(N4CCc5ccc(F)cc5C4C)c32)cc1 (centres unmarked) [Example 548, 2-[2,3-dimethyl-1-(4-methylbenzyl)-1H-pyrrolo[2,3-c]pyridin-7-yl]-7-fluoro-1-methyl-1,2,3,4-tetrahydroisoquinoline hydrochloride] | 410 nM
32 | Cc1c(C)n(Cc2cccc(F)c2)c2c(-c3ccc4ccccc4c3)nccc12 [Example 405, 1-(3-fluorobenzyl)-2,3-dimethyl-7-(naphthalen-2-yl)-1H-pyrrolo[2,3-c]pyridine hydrochloride] | 73 nM
33 | Cc1nc(Cn2c(C)c(C)c3ccnc(N4CCc5ccc(F)cc5C4C)c32)cs1 (centres unmarked) [Example 551, 2-[2,3-dimethyl-1-(2-methylthiazol-4-ylmethyl)-1H-pyrrolo[2,3-c]pyridin-7-yl]-7-fluoro-1-methyl-1,2,3,4-tetrahydroisoquinoline hydrochloride] | 320 nM
34 | CCC1c2ccccc2CCN1c1nccc2c(C)c(C)n(COC)c12 (centres unmarked) [Example 584, 1-ethyl-2-(1-methoxymethyl-2,3-dimethyl-1H-pyrrolo[2,3-c]pyridin-7-yl)-1,2,3,4-tetrahydroisoquinoline hydrochloride] | 330 nM
35 | Cc1ccc(Cn2c(C)c(C)c3ccnc(-c4ccc(C)cc4)c32)cc1 [Example 279, 2,3-dimethyl-1-(4-methylbenzyl)-7-(p-tolyl)-1H-pyrrolo[2,3-c]pyridine hydrochloride] | 231 nM
